Experiments:
Test in all cases: Post-emergence test on weeds (greenhouse, spray at 2-3 leaf stage)
Type in all cases: in vivo
Parameters in all cases: key: Level 10: completely dead; Level 9: growth control rate greater than or equal to 90% and less than 100%; Level 8: growth control rate greater than or equal to 80% and less than 90%; Level 7: growth control rate greater than or equal to 70% and less than 80%; Level 6: growth control rate greater than or equal to 60% and less than 70%; Level 5: growth control rate greater than or equal to 50% and less than 60%; Level 4: growth control rate greater than or equal to 40% and less than 50%; Level 3: growth control rate greater than or equal to 30% and less than 40%; Level 2: growth control rate greater than or equal to 20% and less than 30%; Level 1: growth control rate less than 20%; Level 0: no effect
Conditions in all cases: 60 g a.i./ha, 3 weeks after application
[1] = tested on: Setaria viridis
Excerpt: (§1) The activity level criteria for plant damage (i.e., growth control rate) are as follows: • Level 10: completely dead; • Level 9: growth control rate greater than or equal to 90% and less than 100%; • Level 8: growth control rate greater than or equal to 80% and less than 90%; • Level 7: growth control rate greater than or equal to 70% and less than 80%; • Level 6: growth control rate greater than or equal to 60% and less than 70%; • Level 5: growth control rate greater than or equal to 50% and less than 60%; • Level 4: growth control rate greater than or equal to 40% and less than 50%; • Level 3: growth control rate greater than or equal to 30% and less than 40%; • Level 2: growth control rate greater than or equal to 20% and less than 30%; • Level 1: growth control rate less than 20%; • Level 0: no effect.
(§2) The above growth control rates are fresh weight control rates.
(§3) Monocotyledonous and dicotyledonous weed seeds (Descurainia sophia, Capsella bursa-pastoris, Abutilon theophrasti, Galium spurium, Stellaria media, Lithospermum arvense, Rorippa indica, Alopecurus aequalis, Alopecurus japonicus, Eleusine indica, Beckmannia syzigachne, Sclerochloa dura, Erigeron canadensis, Phleum paniculatum, Veronica polita, Bromus japonicus, Aegilops tauschii, Phalaris arundinacea, Amaranthus retrofexus, Chenopodium, Commelina communis, Cichorium endivia, Convolvulus arvensis, Cirsium arvense, Solanum nigrum, Acalypha australis, Digitaria sanguinalis, Echinochloa crus-galli, Setaria viridis, Setaa pumila, Lepochloa chinensis, Monochona vaginalis, Sagitta trifolia, Schoenoplectiella juncoides, Cypenus rotundus, Cyperus ira, Cyperus difformis, Fimbristylis, Portulaca oleracea, Xanthium sibiricum, Ipomoea nil, Eschenbachia japonica, etc.) and major crop seeds (wheat, maize, paddy rice, soybean, cotton, oilseed rape, millet, sorghum, potato, sesame, castor plant, etc.) were placed in plastic pots filled with soil and then covered with 0.5-2 cm of soil to allow them to grow in a favorable greenhouse environment. Two weeks after sowing, the test plants were treated at the stage of 2-3 leaves. The test compounds of the present invention were individually dissolved with acetone, then added with Tween® 80, with 1.5 L/ha of methyl oleate emulsifiable concentrate as a synergist, diluted into solutions of certain concentrations using certain amount of water, and sprayed to the plants using a spray tower. After drug application, the experimental results on weeds were collected after 3 weeks of cultivation in a greenhouse. The compounds were applied at 500, 250, […], 15, and 7.5 g a.i./ha in triplicate, and the results were averaged.

[2] = tested on: Abutilon theophrasti
Excerpt: as §1, §2, §3

[3] = tested on: Veronica polita
Excerpt: as §1, §2, §3

[4] = tested on: Digitaria sanguinalis
Excerpt: as §1, §2, §3

[5] = tested on: Amaranthus retroflexus
Excerpt: as §1, §2, §3

[6] = tested on: Echinochloa crus-galli
Excerpt: as §1, §2, §3

CC1(C(=O)OCc2ccccc2F)ON=C(c2cc(-c3ncc(C(F)(F)F)cc3Cl)c(F)cc2Cl)O1 (racemic) [Compound 133]
10: activity level (fresh weight growth control rate), Setaria viridis [1] | activity level (fresh weight growth control rate), Abutilon theophrasti [2] | activity level (fresh weight growth control rate), Veronica polita [3] | activity level (fresh weight growth control rate), Digitaria sanguinalis [4] | activity level (fresh weight growth control rate), Amaranthus retroflexus [5] | activity level (fresh weight growth control rate), Echinochloa crus-galli [6]

CC(C)=NOC(=O)C1(C)ON=C(c2cc(-c3ncc(C(F)(F)F)cc3Cl)c(F)cc2Cl)O1 (racemic) [Compound 137]
10: activity level (fresh weight growth control rate), Setaria viridis [1] | activity level (fresh weight growth control rate), Abutilon theophrasti [2] | activity level (fresh weight growth control rate), Veronica polita [3] | activity level (fresh weight growth control rate), Digitaria sanguinalis [4] | activity level (fresh weight growth control rate), Amaranthus retroflexus [5] | activity level (fresh weight growth control rate), Echinochloa crus-galli [6]

CC(=NOC(=O)C1(C)ON=C(c2cc(-c3ncc(C(F)(F)F)cc3Cl)c(F)cc2Cl)O1)C(F)(F)F (racemic) [Compound 139]
10: activity level (fresh weight growth control rate), Setaria viridis [1] | activity level (fresh weight growth control rate), Abutilon theophrasti [2] | activity level (fresh weight growth control rate), Veronica polita [3] | activity level (fresh weight growth control rate), Digitaria sanguinalis [4] | activity level (fresh weight growth control rate), Amaranthus retroflexus [5] | activity level (fresh weight growth control rate), Echinochloa crus-galli [6]

CCOC(C)=NOC(=O)C1(C)ON=C(c2cc(-c3ncc(C(F)(F)F)cc3Cl)c(F)cc2Cl)O1 (racemic) [Compound 141]
10: activity level (fresh weight growth control rate), Setaria viridis [1] | activity level (fresh weight growth control rate), Abutilon theophrasti [2] | activity level (fresh weight growth control rate), Veronica polita [3] | activity level (fresh weight growth control rate), Digitaria sanguinalis [4] | activity level (fresh weight growth control rate), Amaranthus retroflexus [5] | activity level (fresh weight growth control rate), Echinochloa crus-galli [6]

CC1(C(=O)ON=Cc2ccco2)ON=C(c2cc(-c3ncc(C(F)(F)F)cc3Cl)c(F)cc2Cl)O1 (racemic) [Compound 143]
10: activity level (fresh weight growth control rate), Setaria viridis [1] | activity level (fresh weight growth control rate), Abutilon theophrasti [2] | activity level (fresh weight growth control rate), Veronica polita [3] | activity level (fresh weight growth control rate), Digitaria sanguinalis [4] | activity level (fresh weight growth control rate), Amaranthus retroflexus [5] | activity level (fresh weight growth control rate), Echinochloa crus-galli [6]

Cc1ccc(C=NOC(=O)C2(C)ON=C(c3cc(-c4ncc(C(F)(F)F)cc4Cl)c(F)cc3Cl)O2)s1 (racemic) [Compound 144]
10: activity level (fresh weight growth control rate), Setaria viridis [1] | activity level (fresh weight growth control rate), Abutilon theophrasti [2] | activity level (fresh weight growth control rate), Veronica polita [3] | activity level (fresh weight growth control rate), Digitaria sanguinalis [4] | activity level (fresh weight growth control rate), Amaranthus retroflexus [5] | activity level (fresh weight growth control rate), Echinochloa crus-galli [6]

CC1(C(=O)ON=C2CCCC2)ON=C(c2cc(-c3ncc(C(F)(F)F)cc3Cl)c(F)cc2Cl)O1 (racemic) [Compound 145]
10: activity level (fresh weight growth control rate), Setaria viridis [1] | activity level (fresh weight growth control rate), Abutilon theophrasti [2] | activity level (fresh weight growth control rate), Veronica polita [3] | activity level (fresh weight growth control rate), Digitaria sanguinalis [4] | activity level (fresh weight growth control rate), Amaranthus retroflexus [5] | activity level (fresh weight growth control rate), Echinochloa crus-galli [6]

CC1(C(=O)ON=C(c2ccccc2)c2ccccc2)ON=C(c2cc(-c3ncc(C(F)(F)F)cc3Cl)c(F)cc2Cl)O1 (racemic) [Compound 146]
10: activity level (fresh weight growth control rate), Setaria viridis [1] | activity level (fresh weight growth control rate), Abutilon theophrasti [2] | activity level (fresh weight growth control rate), Veronica polita [3] | activity level (fresh weight growth control rate), Digitaria sanguinalis [4] | activity level (fresh weight growth control rate), Amaranthus retroflexus [5] | activity level (fresh weight growth control rate), Echinochloa crus-galli [6]

Cc1cc(C)n(C(=O)C2(C)ON=C(c3cc(-c4ncc(C(F)(F)F)cc4Cl)c(F)cc3Cl)O2)n1 (racemic) [Compound 156]
10: activity level (fresh weight growth control rate), Setaria viridis [1] | activity level (fresh weight growth control rate), Abutilon theophrasti [2] | activity level (fresh weight growth control rate), Veronica polita [3] | activity level (fresh weight growth control rate), Digitaria sanguinalis [4] | activity level (fresh weight growth control rate), Amaranthus retroflexus [5] | activity level (fresh weight growth control rate), Echinochloa crus-galli [6]

CC(=NOC(=O)C1(C)ON=C(c2cc(-c3ncc(C(F)(F)F)cc3Cl)c(F)cc2Cl)O1)C1CC1 (racemic) [Compound 172]
10: activity level (fresh weight growth control rate), Setaria viridis [1] | activity level (fresh weight growth control rate), Abutilon theophrasti [2] | activity level (fresh weight growth control rate), Veronica polita [3] | activity level (fresh weight growth control rate), Digitaria sanguinalis [4] | activity level (fresh weight growth control rate), Amaranthus retroflexus [5] | activity level (fresh weight growth control rate), Echinochloa crus-galli [6]

CC1(C(=O)O)ON=C(c2cc(-c3ncc(C(F)(F)F)cc3Cl)c(F)cc2Cl)O1 (stereo not drawn) [Compound 1]
10: activity level (fresh weight growth control rate), Setaria viridis [1] | activity level (fresh weight growth control rate), Abutilon theophrasti [2] | activity level (fresh weight growth control rate), Veronica polita [3] | activity level (fresh weight growth control rate), Digitaria sanguinalis [4] | activity level (fresh weight growth control rate), Amaranthus retroflexus [5] | activity level (fresh weight growth control rate), Echinochloa crus-galli [6]

COC(=O)C1ON=C(c2cc(-c3ncc(C(F)(F)F)cc3Cl)c(F)cc2Br)O1 (stereo not drawn) [Compound 2]
10: activity level (fresh weight growth control rate), Setaria viridis [1] | activity level (fresh weight growth control rate), Abutilon theophrasti [2] | activity level (fresh weight growth control rate), Veronica polita [3] | activity level (fresh weight growth control rate), Digitaria sanguinalis [4] | activity level (fresh weight growth control rate), Amaranthus retroflexus [5] | activity level (fresh weight growth control rate), Echinochloa crus-galli [6]
